Measured values: BindingDB's records for patent US11718589 (Case Western Reserve University, 2023)

target: T1, 15-hydroxyprostaglandin dehydrogenase [NAD(+)] (Homo sapiens, UniProt P15428); experiment: In Vitro Assay
T1 sequence (P15428 whole entry): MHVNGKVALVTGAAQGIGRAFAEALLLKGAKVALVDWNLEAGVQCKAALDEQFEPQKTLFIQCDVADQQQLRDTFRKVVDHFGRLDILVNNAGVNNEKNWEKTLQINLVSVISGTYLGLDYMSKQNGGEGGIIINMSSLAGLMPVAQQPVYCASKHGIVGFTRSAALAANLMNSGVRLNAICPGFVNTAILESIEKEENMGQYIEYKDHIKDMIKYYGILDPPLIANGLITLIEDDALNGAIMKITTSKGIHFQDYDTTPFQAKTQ

| SMILES | IC50 [µM] |
| --- | --- |
| CCCCS(=O)(=O)c1cc2nc(-c3ccc(OC)cc3)cc(C(F)(F)F)n2n1 [US11718589, Compound 4a] | > 2.5 |
| CCCC[S+]([O-])c1cc2nc(-c3ccc(OC)cc3)cc(-c3ccc(F)cc3)n2n1 (stereo unspecified) [US11718589, Compound 6a] | 0.059 |
| CCNC(=O)c1cc2nc(-c3ccc(OC)cc3)cc(C(F)(F)F)n2n1 [US11718589, Compound 7a] | > 2.5 |
| COc1ccc(-c2cc(C(F)(F)F)n3nc(C(=O)NCCO)cc3n2)cc1 [US11718589, Compound 12a] | > 2.5 |

Second part, the compound after the results:

| IC50 [µM] | SMILES |
| --- | --- |
| 0.0355 | CCCC[S+]([O-])c1cc2nc(-c3ccc(OC)cc3)cc(C(F)(F)F)n2n1 (stereo unspecified) [US11718589, Compound 3a] |
| 0.039 | CCCC[S+]([O-])c1cc2nc(-c3ccc(OC)cc3)cc(-c3ccccc3)n2n1 (stereo unspecified) [US11718589, Compound 5a] |
